Measurements: patent US20110230481A2, “DERIVATIVES OF TETRABROMOBENZIMIDAZOLE, A PROCESS FOR THE PREPARATION THEREOF, A PHARMACEUTICAL COMPOSITION COMPRISING THE SAME, A METHOD OF USING THE SAME, A METHOD FOR MODULATING OR REGULATING SERINE/THREONINE KINASES, AND SERINE/THREONINE KINASES MODULATING AGENT” (SELVITA S.A., priority 2009, published 2011)
pIC50: −log10 of the molar value. ≈ marks a conversion by molar mass, not a printed value.

Experiments:
[1] = molecular target: CK2α (Homo sapiens, UniProt P68400); assay: Radiometric kinase assay (HotSpot)
[2] = test system: human acute myeloid leukemia MOLM-13 cells; assay: Growth inhibition test (MTS); type: cell-based; conditions: Homo sapiens, MOLM-13; MOLM13; 72 hours; read-out: Cytotoxicity in MTS assay (ED50)
Description: (§1) Ten thousand cells of acute myeloid leukemia MOLM-13 were inoculated into each well of a 96-well microplate (manufactured by Corning Corp.) using RPMI 8226 medium (culture medium) containing 10% fetal calf serum (FCS). The same day, a dimethyl sulfoxide (DMSO) solution of each test compound prepared in a concentration of 10 mmol/L was further diluted with DMSO to the desired concentrations (0.1, 0.5, 1, 2.5, 5 and 10 micromol/L), and the diluted solution was added to each well. The individual wells were further cultured in 5% carbon dioxide at 37° C. for 72 hours. After completion of the culture, 10 μl MTS (3-(4,5-Dimethyl-2-thiazolyl)-5-(carboxymethoxyphenyl)-2-(4-sulfophenyl)-2H-tetrazolium, inner salt assay (CellTiter96® AQueous One Solution Cell Proliferation Assay, Promega) was added to each well, and culturing was performed in 5% carbon dioxide at 37° C. for 2 hours. Using a microplate spectrophotometer (Synergy 2 multi-mode microplate reader (BioTek)), the absorbance of each well was measured at 490 nm. The value for cells not incorporated with a test compound was designated as 100%. By comparing these values with the absorbance difference obtained at the well in which each test compound was added, the cell viability (% viability) after treatment with the test compound was calculated.

[3] = molecular target: PIM2 (Homo sapiens, UniProt Q9P1W9); assay: Radiometric kinase assay (HotSpot); conditions: for Selectivity for Pim-2 over CK2α: ratio of IC50 values
[4] = test system: human myelomonocytic, biphenotypic leukemia MV4-11 cells; assay: Growth inhibition test (MTS); type: cell-based; conditions: Homo sapiens, MV4-11; MV-4-11; 72 hours; read-out: Cytotoxicity in MTS assay (ED50)
Description: as §1, with “human myelomonocytic, biphenotypic” for “acute myeloid”, “MV4-11” for “MOLM-13”, “Iscove's MDM” for “RPMI 8226”

[5] = molecular target: PIM1 (Homo sapiens, UniProt P11309); assay: Radiometric kinase assay (HotSpot); conditions: for Selectivity for Pim-1 over CK2α: ratio of IC50 values
[6] = test system: human acute lymphocytic leukemia E6.1 Jurkat cells; assay: Growth inhibition test (MTS); type: cell-based; conditions: Homo sapiens, 72 hours, read-out: Cytotoxicity in MTS assay (ED50)
Description: (§2) Twenty thousand cells of human acute lumphocytic leukemia E6.1 Jurkat were inoculated into each well of a 96-well microplate (manufactured by Corning Corp.) using RPMI 8226 medium (culture medium) containing 10% fetal calf serum (FCS). The same day, a dimethyl sulfoxide (DMSO) solution of each test compound prepared in a concentration of 10 mmol/L was further diluted with DMSO to the desired concentrations (0.1, 0.5, 1, 2.5, 5 and 10 micromol/L), and the diluted solution was added to each well. The individual wells were further cultured in 5% carbon dioxide at 37° C. for 72 hours. After completion of the culture, 10 μl MTS (3-(4,5-Dimethyl-2-thiazolyl)-5-(carboxymethoxyphenyl)-2-(4-sulfophenyl)-2H-tetrazolium, inner salt assay (CellTiter96® AQueous One Solution Cell Proliferation Assay, Promega) was added to each well, and culturing was performed in 5% carbon dioxide at 37° C. for 2 hours. Using a microplate spectrophotometer (Synergy 2 multi-mode microplate reader (BioTek)), the absorbance of each well was measured at 490 nm. The value for cells not incorporated with a test compound was designated as 100%. By comparing these values with the absorbance difference obtained at the well in which each test compound was added, the cell viability (% viability) after treatment with the test compound was calculated.

[7] = molecular target: PIM3 (Homo sapiens, UniProt Q86V86); assay: Radiometric kinase assay (HotSpot); conditions: for Selectivity for Pim-3 over CK2α: ratio of IC50 values
[8] = test system: human prostate adenocarcinoma PC3 cells; assay: Growth inhibition test (MTS); type: cell-based; conditions: PC-3; 72 hours
Description: as §2, with “Two” for “Twenty”, “prostate adenocarcinoma PC3” for “acute lumphocytic leukemia E6.1 Jurkat”, “Corp.), and” for “Corp.)”, “F12K (Ham's F12:[…]” for “RPMI”, “[…] 1:1)” for “8226”

[9] = test system: human prostate carcinoma DU145 cells; assay: Growth inhibition test (MTS); type: cell-based; conditions: 72 hours
Description: as §2, with “Two” for “Twenty”, “prostate carcinoma DU145” for “acute lumphocytic leukemia E6.1 Jurkat”, “Corp.), and” for “Corp.)”, “DMEM” for “RPMI 8226”, “innersalt” for “inner salt”

[10] = Solubility in pH 7.4; conditions: phosphate buffer

Chain of PIM2 (Q9P1W9 whole entry): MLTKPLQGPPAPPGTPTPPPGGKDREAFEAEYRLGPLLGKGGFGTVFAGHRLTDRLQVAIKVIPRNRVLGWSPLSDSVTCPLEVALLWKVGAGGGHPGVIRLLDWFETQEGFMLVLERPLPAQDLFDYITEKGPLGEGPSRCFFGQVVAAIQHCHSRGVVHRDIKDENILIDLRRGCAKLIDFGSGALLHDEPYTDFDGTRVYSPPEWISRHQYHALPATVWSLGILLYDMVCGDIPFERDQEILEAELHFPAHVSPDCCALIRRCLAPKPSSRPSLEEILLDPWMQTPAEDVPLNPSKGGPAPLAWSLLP
Chain of PIM1 (P11309 whole entry): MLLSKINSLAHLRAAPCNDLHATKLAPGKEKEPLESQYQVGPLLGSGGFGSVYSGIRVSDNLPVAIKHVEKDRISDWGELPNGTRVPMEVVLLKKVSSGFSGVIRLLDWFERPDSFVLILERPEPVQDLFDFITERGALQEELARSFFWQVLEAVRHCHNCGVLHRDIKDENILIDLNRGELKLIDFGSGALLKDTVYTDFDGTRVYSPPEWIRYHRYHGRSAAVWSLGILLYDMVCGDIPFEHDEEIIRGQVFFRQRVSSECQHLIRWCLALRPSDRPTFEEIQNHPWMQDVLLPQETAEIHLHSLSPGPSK
Chain of CK2α (P68400 whole entry): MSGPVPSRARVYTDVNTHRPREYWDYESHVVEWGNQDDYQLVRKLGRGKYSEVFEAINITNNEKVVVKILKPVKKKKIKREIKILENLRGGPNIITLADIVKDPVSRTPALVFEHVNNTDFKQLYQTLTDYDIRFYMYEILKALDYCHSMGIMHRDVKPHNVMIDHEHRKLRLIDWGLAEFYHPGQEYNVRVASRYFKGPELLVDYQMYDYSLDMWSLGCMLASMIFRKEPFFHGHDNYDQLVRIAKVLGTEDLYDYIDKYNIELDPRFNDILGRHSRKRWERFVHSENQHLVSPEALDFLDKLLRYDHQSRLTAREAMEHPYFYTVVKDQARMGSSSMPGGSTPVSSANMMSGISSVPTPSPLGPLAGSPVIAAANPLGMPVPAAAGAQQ

SMILES	pIC50 [1]	pIC50 [3]	Selectivity for Pim-2 over CK2α [3]	pIC50 [5]	Selectivity for Pim-1 over CK2α [5]	pIC50 [7]	Selectivity for Pim-3 over CK2α [7]	solubility at 24 h [10] [µM]	pIC50 [2]	pIC50 [4]	pIC50 [6]	Cytotoxicity in MTS assay (ED50) [8] [nM]	Cytotoxicity in MTS assay (ED50) [9] [nM]
Brc1c(Br)c(Br)c2[nH]c(NCCCN3CCCCC3)nc2c1Br [Compound 59, 4,5,6,7-tetrabromo-N-(3-(piperidin-1-yl)propyl)-1H-benzo[d]imidazol-2-amine]	6.07	5.83	0.6	7.06	9.7	6.72	4.5	–	5.45	5.55	5.36	–	–
NCCCCNc1nc2c(Br)c(Br)c(Br)c(Br)c2[nH]1 [Compound 61, N-(4-aminobutyl)-4,5,6,7-tetrabromo-1H-benzo[d]imidazol-2-amine]	6.41	6.70	1.9	8.28	74.2	7.69	19.1	–	5.23	5.35	5.10	–	–
Brc1c(Br)c(Br)c2[nH]c(NCCCn3ccnc3)nc2c1Br [Compound 65, N-(3-(1H-imidazol-1-yl)propyl)-4,5,6,7-tetrabromo-1H-benzo[d]imidazol-2-amine]	6.35	6.08	0.5	7.06	5.1	7.80	28.3	–	5.16	< 5.00	< 5.00	>10000	7720

More lines, main results first:

pIC50 [1]	pIC50 [3]	Selectivity for Pim-2 over CK2α [3]	pIC50 [5]	Selectivity for Pim-1 over CK2α [5]	pIC50 [7]	Selectivity for Pim-3 over CK2α [7]	solubility at 24 h [10] [µM]	SMILES	pIC50 [2]	pIC50 [4]	pIC50 [6]	Cytotoxicity in MTS assay (ED50) [8] [nM]	Cytotoxicity in MTS assay (ED50) [9] [nM]
5.71	< 4.70	–	5.82	1.3	5.53	0.7	–	Brc1c(Br)c(Br)c2[nH]c(Nc3ccccc3)nc2c1Br [Compound 79, 4,5,6,7-tetrabromo-N-phenyl-1H-benzo[d]imidazol-2-amine]	5.22	5.36	5.04	–	–
6.13	5.81	0.5	6.26	1.3	6.17	1.1	–	Nc1ccc(Nc2nc3c(Br)c(Br)c(Br)c(Br)c3[nH]2)cc1 [Compound 86, N1-(4,5,6,7-tetrabromo-1H-benzo[d]imidazol-2-yl)benzene-1,4-diamine]	5.06	5.24	5.08	–	–
6.96	7.04	1.2	8.04	12.0	8.12	14.4	72 (≈ 37.6 µg/mL)	NCC(O)CNc1nc2c(Br)c(Br)c(Br)c(Br)c2[nH]1 (centres unmarked) [Compound 90, 1-(4,5,6,7-tetrabromo-1H-benzo[d]imidazol-2-ylamino)-3-aminopropan-2-ol]	5.16	5.67	5.24	–	–
